What was measured:
[1] = tested on: Ovariectomised adult female Sprague Dawley rats; assay: Female rat sexual receptivity test (lordosis quotient, LQ); type: in vivo; details: Example 2; after vs before administration (paired t test); Compound (1) 10mg/kg i.p. 1h; quinelorane 6.25µg/kg s.c. 90min
Description: Ovariectomised adult female Sprague Dawley rats (180-200g, from Charles River) were housed in groups of 6 in a reversed lighting system of 12h light:dark (lights off 7.00-19.00h). Two weeks after ovariectomy they were used for sexual activity tests. The experiments started at least 5h into the dark period.
It was administered intraperitoneally (i.p.) at a dose of 10mg/kg, in a dosing volume of 1ml/kg. […] Forty eight hours before testing, ovariectomised female rats (as described above), were primed with 5µg oestradiol benzoate dissolved in corn oil and injected subcutaneously. […] The females were placed with a series of vigorous male rats and subjected to 10 mounts.
The lordotic response of the animal was recorded and expressed as a percentage of the mounts (i.e. lordosis quotient, LQ), as previously described. Animals showing LQ<20 were considered non-receptive and were included in the study. Each rat was tested prior to administration of the compound and then tested similarly post-injection.
The above compound was dissolved in PEG200 vehicle and administered orally. […] Both compounds were administered in a 1ml/kg volume.
Forty eight hours before tests, the animals were primed with 5µg oestradiol benzoate (Sigma Chemical. Co. Ltd., UK) dissolved in corn oil and injected subcutaneously. The females were placed with a series of vigorous male rats and subjected to 10 mounts. The lordotic response of the animal was recorded and expressed as a percentage of the mounts (i.e. lordosis quotient, LQ). […] Animals showing higher LQ were not included in the study. Each rat was tested prior to administration of the compound and then tested similarly at 1h and 90min post-injection of the above compound or quinelorane respectively.

[2] = tested on: Ovariectomised adult female Sprague Dawley rats; assay: Female rat sexual proceptivity test (time investigating male vs female stimulus); type: in vivo; details: Example 1; i.p., 3 and 10mg/kg in 50% 2-hydroxypropyl-β-cyclodextrin, 1h before tests
Sprague Dawley male rats [3] = assay: Sexual behaviour of fluoxetine-induced sexually dysfunctional male rats; type: in vivo, rat; details: fluoxetine 20mg/kg i.p. 3 days (vs vehicle+vehicle)
Description: (§1) Sprague Dawley male rats (Charles River, UK) were kept, 4 rats per cage, in a reversed lighting regime (12:12 hours, lights off at 5.00 h), with free access to food and water. The rats were pre-selected by being presented with a receptive female at 4 days intervals, i.e. every third day (having 2 clear days between presentations) until completing 6-7 trials of baseline determination. The animals showing consistently vigorous behaviour (ejaculatory latencies <300s) were chosen for further experiments. Animals were treated for 3 consecutive days with either vehicle (water) or fluoxetine (20mg/kg, i.p., in a 2ml/kg dosing volume). […] All treatments were administered i.p. in a 1ml/kg volume, 1h before tests.
(§2) For all the sexual behaviour tests, the males were placed in an observation arena (50-60 cm diameter), starting 5 hours into the dark cycle and observed under red illumination. Three to 4 minutes after placing the male in the arena, a receptive female (ovariectomised, bearing a 7 mm Silastic implant of oestradiol benzoate) was introduced to the arena and the following parameters noted: Mount Latency: time (in seconds) taken between introduction of female and first mount. A maximum time of 15 minutes (900 seconds) was allowed, and the test terminated if no mounts were recorded within that time (Figure 16), Ejaculation Latency: time (in seconds) taken from first intromission to ejaculation. A maximum time of 30 minutes (1800 seconds) was given, and the test terminated if ejaculation was not achieved in that time (Figure 17), Percentage of males achieving ejaculation within 30 minutes was calculated (Figure 18).
A one-way ANOVA followed by Dunnett's t test was used to compare the fluoxetine+vehicle group and other groups for mount and ejaculatory latencies. Percentage of animals ejaculating was analysed using a Chi-square test followed by Fisher's test. (*: P<0.05, **: P<0.01, ***: P<0.001; n=15-19).

Sprague Dawley male rats [4] = assay: Sexual behaviour of normal (sexually vigorous) male rats; type: in vivo, rat; details: Compound (1) 15mg/kg or Fluoxetine 20mg/kg i.p. 1h before tests, vs vehicle
Description: as §1, with “days” for “trials”, “experiments (n=24).” for “experiments.”, “randomised into three groups. All animals received all three treatments following a latin-square design. Treatments were administered once a week, with a baseline test in between treatments (4” for “treated for 3 consecutive”, “intervals between baseline and test day).” for “with either vehicle (water) or fluoxetine (20mg/kg, i.p., in a 2ml/kg dosing volume).”
as §2, with “11), Intromission Latency: time (in seconds) taken between introduction of female and first intromission (Figure 12), Number of Mounts: to reach ejaculation. When ejaculation was not reached, the number of mounts was not analyzed, Number of Intromissions: to reach ejaculation. When ejaculation was not reached, the number of intromissions was not analyzed (Figure 13 is number of mounts + intromissions),” for “16),”, “14), and Refractory Period: time (in seconds) taken from ejaculation to the first mount” for “17), Percentage”, “the next series of sexual activity. In those animals reaching” for “males achieving”, “the test” for “within 30 minutes”, “terminated at the end of the refractory period, as indicated by the first mount of the next sexual cycle” for “calculated”, “15).” for “18).”
A one-way ANOVA followed by Dunnett's t test was used to compare treated vs vehicle groups each day of testing, for all the sexual behaviour parameters.

[5] = day 4 Compound (1) 15mg/kg or yohimbine 2mg/kg i.p. 1h before tests (vs fluoxetine+vehicle)

With `COc1ccc(C2(CNC(=O)[C@](C)(Cc3c[nH]c4ccccc34)NC(=O)Nc3ccc([N+](=O)[O-])cc3)CCCCC2)nc1` [Compound (1), (S) 3-(1H-Indol-3-yl)-N-[1-(5-methoxy-pyridin-2-yl)-cyclohexyl-methyl]-2-methyl-2-[3-(4-nitro-phenyl)-ureido]-propionamide] the “lordosis quotient (LQ)” value [1] was “significant (P<0.05) stimulatory effect on the LQ”, the “MED (increase in percentage of time spent investigating the male stimulus)” value [2] was 10 mg/kg and the Ejaculation latency (Sprague Dawley male rats [3]; [5]) was “significantly decreased”. For the same molecule, the Mount latency (Sprague Dawley male rats [3]; [5]) was “significantly decreased”, the “percentage of animals ejaculating” value (Sprague Dawley male rats [3]; within 30 minutes, day 4 Compound (1) 15mg/kg or yohimbine 2mg/kg i.p. (vs fluoxetine+vehicle)) was “increasing the percentage of animals ejaculating” and the Ejaculation latency (Sprague Dawley male rats [4]) was “no effect”. For the same molecule, the Intromission latency (Sprague Dawley male rats [4]) was “no effect”, the Mount latency (Sprague Dawley male rats [4]) was “no effect” and the Refractory period (Sprague Dawley male rats [4]) was “no effect”. For the same molecule, the “number of mounts and intromissions required to achieve ejaculation” value (Sprague Dawley male rats [4]) was “no effect”.
